Results on 21 compounds are retold here after patent publication US5190961A, “Thiourea derivatives and antimicrobial agent and antulcer agent containing the same” (Terumo Kabushiki Kaisha, priority 1990, dated 1993).

In test [1] the test system is Helicobacter pylori. The experiment in a line: Antimicrobial activity against Helicobacter pylori (MIC). It counts as cell-based, Helicobacter pylori strain NCTC 11916. Conditions: NCTC11916, strain NCTC 11916, twofold dilution, 37° C., 3-5 days, O2 about 5%. As to the method: (3) Antimicrobial activity against Helicobacter pylori
Antimicrobial activity of the thiourea derivatives according to the invention against Helicobacter pylori (or Campylobacter pylori) was evaluated by employing strain NCTC 11916 as a Helicobacter test organism and determining MIC (minimum inhibitory concentration) for the strain with the thiourea derivative.
The Helicobacter pylori was pre-incubated in a plate medium for 3-5 days. The medium was prepared by dissolving 38 g of a Mueller-Hinton medium (manufactured by Difco) in an appropriate amount of distilled water, sterilizing the solution in an autoclave, adding to the solution 50 ml of a horse hemolysis solution (manufactured by Nippon Seibutu Zairyou Center: Horse defibrinized blood, hemolyzed by a lyophilization treatment) and 2 ml of Skirrow, a Campylobacter selective supplement (manufactured by OXOID) containing vancomycin (5 mg), trimethoprim (2.5 mg) and polymyxin B (1250 IU) per vial (2 ml), and further an appropriate amount of distilled water to a volume of 1L in total and expanding and solidifying the solution on a dish. These antibiotics were contained for inhibition of the growth of microorganism other than Helicobacter pylori. The Helicobacter pylori pre-incubated under slightly aerobic conditions (an O2 concentration of about 5%) at 37° C. for 3-5 days was suspended in a physiological saline solution in a concentration of approximately 10^8 organisms/ml. Approximately 10-20 μl of the suspension was inoculated on a medium for MIC measurement in cross streaks. […] The DMSO solution was formed by the twofold dilution method. As in the pre-incubation, the Helicobacter pylori was cultured under slightly aerobic conditions at 37° C. for 3-5 days. After completion of the culture, growth of the microoranisms on the streaks was visually determined. The minimum concentration of the thiourea derivative in which no growth was observed was taken as MIC.
It was confirmed that the thiourea derivatives of the invention not shown in the table also have a similar antimicrobial activity.

Test [2] relates to ethanol peptic ulcer. Put plainly: Inhibitory action against ethanol peptic ulcer. The format is in vivo. Conditions: Rattus norvegicus; SD male rats, 32 mg/kg oral, 1 hour before ethanol 0.5 ml/100 g; read-out: Inhibitory action against ethanol peptic ulcer, Percent inhibition of p.u. formation. As to the method:
(2) Inhibitory action against ethanol peptic ulcer
SD male rats (weighing 200-300 g) were fasted for 24 hours before oral administration of a thiourea derivative of the invention at a dose of 32 mg/kg bodyweight. One hour later, ethanol was orally given in a volume of 0.5 ml/100 g bodyweight. One hour after treating with ethanol, the rat was sacrificed with ether, and the stomach was excised and treated with formalin. Area (mm^2) of the lesions developed in the glandular stomach area was then measured. Results were expressed in sum of the lesions per animal which was referred to as peptic ulcer index.
(§1) It was confirmed that the thiourea derivatives of the invention not shown in the table also have a similar antiulcer activity.
Percent inhibition of the peptic ulcer formation (%) as shown in the table was calculated according to the same equation as mentioned above.

Test [3] has as its system peptic ulcer induced by water immersion restraint stress. Put plainly: Inhibitory action against the peptic ulcer induced by water immersion restraint stress. The format is in vivo. Conditions: Rattus norvegicus; SD male rats, 32 mg/kg oral, water immersion restraint stress 23° C., 7 hours; read-out: Inhibitory action against stress peptic ulcer, Percent inhibition of p.u. formation. As to the method: (1) Inhibitory action against the peptic ulcer induced by water immersion restraint stress
SD male rats (weighing 200-300 g) were fasted for 24 hours before oral administration of a thiourea derivative of the invention at a dose of 32 mg/kg bodyweight. One hour later, the animal was put in a stress cage and loaded with water immersion restraint stress in a water bath at 23° C. Seven hours after loading with the stress, the rate was sacrificed with ether, and the stomach was excised and treated with formalin. Area (mm^2 ) of the lesions developed in the glandular stomach area was then measured. Results were expressed in sum of the lesions per animal which was referred to as peptic ulcer index.
as §1
Percent inhibition of the peptic ulcer formation (%) as shown in the table was calculated according to the following equation: [formula]

In brackets after ≈: the same amount, converted by molar mass.

For orientation: MIC means the lowest concentration that inhibits growth of the organism. As for `CNC(=S)NCCCC(=O)NCCCOc1cccc(CN2CCCCC2)c1` [Example 1, 1-[3-[N-[3-[3-(piperidinomethyl)phenoxy]propyl]carbamoyl]propyl]-3-methylthiourea], the MIC in test [1] came out at 6.25 µg/mL (≈ 15.4 µM). Further, the results for the inhibition in vivo at 32 mg/kg in test [2] and in test [3] were 51.4% and 92.1%, respectively.

Regarding `CCCCNC(=S)NCCCC(=O)NCCCOc1cccc(CN2CCCCC2)c1` [Example 2], the minimum inhibitory concentration (MIC) in test [1] came to 6.25 µg/mL (≈ 13.9 µM). Moreover, the inhibition in vivo at 32 mg/kg in test [2] worked out at 75.7%; in test [3], 67.1%.

As for `O=C(CCCNC(=S)Nc1ccccc1)NCCCOc1cccc(CN2CCCCC2)c1` [Example 3, 1-[3-[N-(3-[3-(piperidinomethyl)phenoxy]propyl]carbamoyl]propyl]-3-phenylthiourea], it took 12.5 µg/mL (≈ 26.7 µM) to inhibit growth in test [1] (MIC). In addition, the figures for the inhibition in vivo at 32 mg/kg in test [2] and in test [3] were 88.7% and 80.5%, respectively.

In test [1], `O=C(CCCNC(=S)Nc1ccc(Cl)cc1)NCCCOc1cccc(CN2CCCCC2)c1` [Example 4, 1-[3-[N-[3-[3-(piperidinomethyl)phenoxy]propyl]carbamoyl]propyl]-3-(p-chlorophenyl)thiourea] had a minimum inhibitory concentration (MIC) of 6.25 µg/mL (≈ 12.4 µM). Besides, the inhibition in vivo at 32 mg/kg in test [2] amounted to 78.2%; in test [3] it was 74.6%.

In test [1], `O=C(CCCNC(=S)NC1CCCCC1)NCCCOc1cccc(CN2CCCCC2)c1` [Example 5, 1-[3-[N-[3-[3-(piperidinomethyl)phenoxy]propyl]carbamoyl]propyl]-3-cyclohexylthiourea] came in with a minimum inhibitory concentration (MIC) of 6.25 µg/mL (≈ 13.2 µM). For the same compound, the figures for the inhibition in vivo at 32 mg/kg in test [2] and in test [3] were 82.3% and 70.5%, respectively.

In test [1], `O=C(CCCNC(=S)NCCc1ccccc1)NCCCOc1cccc(CN2CCCCC2)c1` [Example 6] gave a minimal inhibitory concentration (MIC) of 6.25 µg/mL (≈ 12.6 µM). In addition, the inhibition in vivo at 32 mg/kg stood at 84.4% in test [2] and 76.9% in test [3].

Consider `O=C(CCCNC(=S)Nc1cccc2ccccc12)NCCCOc1cccc(CN2CCCCC2)c1` [Example 7, 1-[3-[N-[3-[3-(piperidinomethyl)phenoxy]-propyl]carbamoyl]propyl]-3-(1-naphthyl)thiourea], for which the MIC in test [1] was found to be 6.25 µg/mL (≈ 12 µM). For the same compound, the inhibition in vivo at 32 mg/kg in test [2] amounted to 92%; in test [3], 88.3%.

`O=C(CCCNC(=S)Nc1cccnc1)NCCCOc1cccc(CN2CCCCC2)c1` [Example 8] displayed a minimum inhibitory concentration (MIC) in test [1] of 12.5 µg/mL (≈ 26.6 µM). The inhibition in vivo at 32 mg/kg in test [2] amounted to 65%; in test [3], 82.2%.

With `O=C(CCCNC(=S)Nc1ccccc1)NCCCOc1cccc(CN2CCCC2)c1` [Example 9, 1-[3-[N-[3-[3-(pyrrolidinomethyl)phenoxy]propyl]carbamoyl]propyl]-3-phenylthiourea], in test [1], the lowest concentration to inhibit growth (MIC) was 6.25 µg/mL (≈ 13.7 µM). The inhibition in vivo at 32 mg/kg in test [2] amounted to 77.9%; in test [3], 58.6%.

As to `Cc1ccccc1NC(=S)NCCCC(=O)NCCCOc1cccc(CN2CCCCC2)c1` [Example 10, 1-[3-[N-[3-[3-(piperidinomethyl)phenoxyl]propyl]carbamoyl]propyl]-3-(O-methylphenyl)thiourea], in test [1], the MIC was 6.25 µg/mL (≈ 12.9 µM). For the same compound, the inhibition in vivo at 32 mg/kg in test [2] came out at 94.2%; in test [3], 82.2%.

Compound `Cc1cc(C)cc(NC(=S)NCCCC(=O)NCCCOc2cccc(CN3CCCCC3)c2)c1` [Example 11, 1-[3-[N-[3-[3-(piperidinomethyl)phenoxy]propyl]carbamoyl]propyl]-3-(3,5-dimethylphenyl)thiourea] came in with a minimum inhibitory concentration (MIC) in test [1] of 6.25 µg/mL (≈ 12.6 µM). Moreover, the inhibition in vivo at 32 mg/kg is 92.8% in test [2] and 85.5% in test [3].

The compound `Cc1cc(C)c(NC(=S)NCCCC(=O)NCCCOc2cccc(CN3CCCCC3)c2)c(C)c1` [Example 12, 1-[3-[N-[3-[3-(piperidinomethyl)phenoxy]propyl]carbamoyl]propyl]-3-(2,4,6-trimethylphenyl)thiourea] gave an MIC in test [1] of 6.25 µg/mL (≈ 12.2 µM). The inhibition in vivo at 32 mg/kg in test [2] worked out at 80.2%; in test [3] it was 77.1%.

Regarding `CC(C)c1ccc(NC(=S)NCCCC(=O)NCCCOc2cccc(CN3CCCCC3)c2)cc1` [Example 13, 1-[3-[N-[3-[3-(piperidinomethyl)phenoxy]propyl]carbamoyl]propyl]-3-(p-isopropylphenyl)thiourea], in test [1], the minimal inhibitory concentration (MIC) amounted to 6.25 µg/mL (≈ 12.2 µM). Also, the inhibition in vivo at 32 mg/kg was 90.2% in test [2] and 77.3% in test [3].

In test [1], `COc1ccccc1NC(=S)NCCCC(=O)NCCCOc1cccc(CN2CCCCC2)c1` [Example 14, 1-[3-[N-[3-[3-(piperidinomethyl)phenoxy]propyl]-carbamoyl]propyl]-3-(O-methoxyphenyl)thiourea] yielded an MIC of 6.25 µg/mL (≈ 12.5 µM). Further, the results for the inhibition in vivo at 32 mg/kg in test [2] and in test [3] were 94.3% and 91.2%, respectively.

In test [1], `COc1cccc(NC(=S)NCCCC(=O)NCCCOc2cccc(CN3CCCCC3)c2)c1` [Example 15, 1-[3-[N-[3-[3-(piperidinomethyl)phenoxy]propyl]carbamoyl]propyl]-3-(3-methoxyphenyl)thiourea] showed an MIC of 6.25 µg/mL (≈ 12.5 µM). The inhibition in vivo at 32 mg/kg in test [2] stood at 92.1%; in test [3], 78.3%.

Regarding `CCCCOc1ccccc1NC(=S)NCCCC(=O)NCCCOc1cccc(CN2CCCCC2)c1` [Example 16, 1-[3-[N-[3-[3-(piperidinomethyl)phenoxy]propyl]carbamoyl]propyl]-3-(O-n-buthoxyphenyl)thiourea], in test [1], the minimal inhibitory concentration (MIC) was 6.25 µg/mL (≈ 11.6 µM). Besides, the values for the inhibition in vivo at 32 mg/kg in test [2] and in test [3] were 93.3% and 71.7%, respectively.

With `O=C(CCCNC(=S)Nc1ccccc1Oc1ccccc1)NCCCOc1cccc(CN2CCCCC2)c1` [Example 17, 1-[3-[N-[3-[3-(piperidinomethyl)phenoxy]propyl]carbamoyl]propyl]-3-(O-phenoxyphenyl)thiourea], the minimal inhibitory concentration (MIC) in test [1] was determined as 12.5 µg/mL (≈ 22.3 µM). Also, the inhibition in vivo at 32 mg/kg worked out at 73.3% in test [2] and 62.2% in test [3].

As to `COc1cc(NC(=S)NCCCC(=O)NCCCOc2cccc(CN3CCCCC3)c2)cc(OC)c1OC` [Example 18, 1-[3-[N-[3-[3-(piperidinomethyl)phenoxy]propyl]carbamoyl]propyl]-3-(3,4,5-trimethoxyphenyl)thiourea], in test [1], inhibition of growth (MIC) required 6.25 µg/mL (≈ 11.2 µM). Also, the inhibition in vivo at 32 mg/kg stood at 83.8% in test [2] and 60.6% in test [3].

Consider `COc1cccc(C)c1NC(=S)NCCCC(=O)NCCCOc1cccc(CN2CCCCC2)c1` [Example 19, 1-[3-[N-[3-[3-(piperidinomethyl)phenoxy]propyl]carbamoyl]propyl]-3-(2-methoxy-6-methylphenyl)thiourea], for which inhibition of growth in test [1] (MIC) required 6.25 µg/mL (≈ 12.2 µM). In addition, the inhibition in vivo at 32 mg/kg in test [2] came out at 94.6%; in test [3], 90.1%.

Compound `N#Cc1cccc(NC(=S)NCCCC(=O)NCCCOc2cccc(CN3CCCCC3)c2)c1` [Example 20, 1-[3-[N-[3-[3-(piperidinomethyl)phenoxy]propyl]carbamoyl]propyl]-3-(3-cyanophenyl)thiourea] yielded an MIC in test [1] of 12.5 µg/mL (≈ 25.3 µM). Also, the inhibition in vivo at 32 mg/kg is 83.5% in test [2] and 70.2% in test [3].

The compound `CSc1ccccc1NC(=S)NCCCC(=O)NCCCOc1cccc(CN2CCCCC2)c1` [Example 21, 1-[3-[N-[3-[3-(piperidinomethyl)phenoxy]propyl]carbamoyl]propyl]-3-(2-methylthiophenyl)thiourea] returned an MIC in test [1] of 6.25 µg/mL (≈ 12.1 µM). Further, the results for the inhibition in vivo at 32 mg/kg in test [2] and in test [3] were 81.1% and 85.5%, respectively.
